Marks after values point to notes of the source that are not given here.
How the values were obtained:
[1] = tested on: PC-3 human prostate adenocarcinoma cells; experiment: MTT cytotoxicity on PC-3; type: cell-based; details: Homo sapiens, 48 h, mean ± standard deviation, n = 3, – = Not detected
Method: (§1) The human leukemia monocyte cell line (THP-1), human lung adenocarcinoma cell line (A549), human breast cancer cells (MDA-MB231), human prostate adenocarcinoma cells (PC3), human malignant glioma cell line (U87MG), human cervical gland carcinoma cells (HeLa), human hepatocellular carcinoma cells (HEP-G2) and normal human lung fibroblast cells (CCD-34-LU) as a healthy cell line in our stock used in this study were purchased from American Type Culture Collection (ATCC). THP-1 cells were cultured in Roswell Park Memorial Institute (RPMI 1640) medium and MDA-MB231, PC3, U87 MG, HeLa, HEP-G2, and CCD-34-LU cells cultivated in Dulbecco’s Modified Eagle’s Medium/Nutrient Mixture F-12 (DMEM/F12) (Gibco, USA) medium supplemented with 10% FBS (Gibco, USA), 100U/mL of penicillin 100 µg/mL of streptomycin (Gibco, USA), and 2 mM L-glutamine (Gibco, USA).
(§2) Cytotoxicity of saponins (1–4) and their prosapogenins (2a–4a) were tested against A549, MDA-MB-231, PC-3, U87MG, HeLa, HepG-2 cancer cells and CCD34-Lu healthy cell line using MTT [3-(4,5-dimethylthiazole-2-yl)-2,5-diphenyltetrazolium bromide)] assay (Acros Organics, New Jersey, USA)[11], [23]. For this purpose, 1 × 10^5 cells/mL of all the cell lines were seeded in 96-well plates (Corning, USA) and cultivated in the at 37 °C overnight. After the incubation, the cells were incubated with different concentrations of saponins (50, 5, and 0.5 µg/mL), and doxorubicin (Sigma, USA) (20, 2, and 0.2 µg/mL) for 48 h at 37 °C. Then, the MTT was added as 20 μL (from the stock concentration of 2.5 mg/mL) to all wells and further incubated for 4 h at 37 °C. Following the incubation, the medium was removed and 150 µL DMSO was added to dissolve the formed formazan crystals. After the formazan crystals were completely dissolved, the optical density (OD) was measured at 570 nm with an UV/Vis microplate spectrophotometer (Thermo Fisher Scientific, USA). All data are the results of at least three independent experiments carried out in triplicate. Data are presented as mean ± standard error of the mean (SEM) of samples. The IC50 value was calculated using the GraphPad Prism 8 (USA) program based on the calculated percent viability values and absorbance values. The percentage of viability was determined by Eq. (1):1 %Viablecells=absorbanceoftreatedcells-absorbanceofblank/absorbanceofcontrol-absorbanceofblank×100

[2] = tested on: A549 human lung adenocarcinoma cell line; experiment: MTT cytotoxicity on A549; type: cell-based; details: Homo sapiens, A549, 48 h, mean ± standard deviation, n = 3, – = Not detected
Method: as §1, §2

[3] = tested on: HeLa human cervical gland carcinoma cells; experiment: MTT cytotoxicity on HeLa; type: cell-based; details: Homo sapiens, HeLa, 48 h, mean ± standard deviation, n = 3, – = Not detected
Method: as §1, §2

[4] = tested on: HepG-2 human hepatocellular carcinoma cells; experiment: MTT cytotoxicity on HepG-2; type: cell-based; details: Homo sapiens, HepG2, 48 h, mean ± standard deviation, n = 3, – = Not detected
Method: as §1, §2

[5] = tested on: U87MG human malignant glioma cell line; experiment: MTT cytotoxicity on U87MG; type: cell-based; details: Homo sapiens, U-87 MG, 48 h, mean ± standard deviation, n = 3, – = Not detected
Method: as §1, §2

[6] = tested on: THP-1 originated-macrophage; experiment: MTT cytotoxicity on THP-1 originated macrophages; type: cell-based, human; details: mean ± standard deviation, n = 3, – = Not detected; for IC50: Homo sapiens, THP-1, 48 h
[7] = tested on: CCD-34Lu normal human lung fibroblast cells; experiment: MTT cytotoxicity on CCD-34Lu healthy cells; type: cell-based; details: Homo sapiens, Fibroblast, 48 h, mean ± standard deviation, n = 3, – = Not detected
Method: as §1, §2

[8] = tested on: MDA-MB-231 human breast cancer cells; experiment: MTT cytotoxicity on MDA-MB-231; type: cell-based; details: Homo sapiens, MDA-MB-231, 48 h, mean ± standard deviation, n = 3, – = Not detected
Method: as §1, §2

[9] = tested on: THP-1 derived macrophage cells; experiment: Macrophage polarization by flow cytometry (CD11b, CD80, CD163 MFI); type: cell-based, human; details: saponin 3 µg/mL, 24 h, PMA-differentiated THP-1, mean ± SD, n = 3
Method: To differentiate THP-1 cells into M0-THP-1, cells were seeded at an initial concentration of 1 × 10^6 cells/mL in 6-well plates (Corning, USA) and treated with 15 ng/mL phorbol 12-myristate 13—acetate (PMA, Sigma USA). Then incubate at 5% CO2, 37 °C for 48 h[24]. To evaluate the potential of saponins with/without infectious bronchitis virus (IBV) D274 antigen on macrophage polarization, THP-1 cells were treated with saponins at 3 µg/mL and then incubated for 24 h with or without 4 µL of inactivated IBV D274 antigens (final titer of 1 HA). […] Based on the results of our previous research, the saponin concentration was selected as a non-cytotoxic concentration. At the end of the incubation period, the cells were collected by trypsinization and washed three times with PBS. Following, 1 µL of PE anti-human CD80 (Biolegend, CA), FITC anti-human CD163 (Biolegend, CA), and FITC anti-human CD11b (Biolegend, CA) antibodies were added into the cells pellet and incubated for 45 min at room temperature in the dark. The cells pellets underwent two PBS washes following incubation. Finally, the cells were subsequently analyzed by flow cytometry (BD Accuri, C5). 1 × 10^4 cells were counted for each sample group using flow cytometry. All data are the results of at least three independent experiments carried out in triplicate. Data are presented as mean ± standard error of the mean (SEM) of samples. The untreated stained macrophage cells with anti-human CD80, FITC anti-human CD163, and FITC anti-human CD11b were compared with the results of treated cells to obtain from M0 polarization to M1 and M2 or both.
Figure 2 (a) Saponins without antigen treatment, (b) Saponins treated with antigen. THP-1 cells were treated with 15 ng/ml PMA and 3 µg/ml saponins and 1 HA titer of IBV D274 induced in the saponins with antigen group for 24 h incubation. The macrophage polarization was determined with flow cytometry. Each value represents the mean ± standard deviation of three independents measurements. (P < 0.05*, P < 0.01**, P < 0.001***).

[10] = with inactivated IBV D274 antigen (1 HA)

Row | SMILES | IC50 [1] | IC50 [2] | IC50 [3] | IC50 [4] | IC50 [5] | IC50 [6] | IC50 [7] | IC50 [8] | MFI of CD 11b (M0 marker) [9, 10] | MFI of CD80 (M1 marker) [9, 10] | MFI of CD 11b (M0 marker) ([9]; without antigen) | MFI of CD80 (M1 marker) ([9]; without antigen) | MFI of CD163 (M2 marker) ([9]; without antigen) | MFI of CD163 (M2 marker) [9, 10] | IC50, THP-1 originated-macrophage ([6]; 48 h)
1 | C[C@@H]1O[C@@H](O[C@H]2[C@H](O[C@H]3CC[C@@]4(C)C(CC[C@]5(C)C4CC=C4C6CC(C)(C)CC[C@]6(C(=O)O)CC[C@]45C)[C@]3(C)CO)O[C@H](CO)[C@H](O)[C@@H]2O)[C@H](O)[C@H](O)[C@H]1O (stereo partly drawn) [Compound 1, 3-O-α-L-rhamopyranosyl-(1 → 2)-β-D-galactopyranosyl-hederagenin] | > 64 µM | 8.59 ± 0.19 µM | 48.1 ± 4.56 µM | > 64 µM | > 64 µM | 27.6 ± 0.52 µM | > 64 µM | 15.1 ± 1.02 µM | 31,644.21 ± 849.30 | 4062.43 ± 906.36 | 28,644.50 ± 849.33 | 4,536.00 ± 239.19 | 6,400.83 ± 196.02* | – | –
2 | C[C@@H]1O[C@@H](O[C@H]2[C@H](O[C@H]3CC[C@@]4(C)C(CC[C@]5(C)C4CC=C4C6CC(C)(C)CC[C@]6(C(=O)O[C@@H]6O[C@H](CO[C@@H]7O[C@H](CO)[C@@H](O)[C@H](O)[C@H]7O)[C@@H](O)[C@H](O)[C@H]6O)CC[C@]45C)C3(C)C)O[C@H](CO)[C@H](O)[C@@H]2O)[C@H](O)[C@H](O)[C@H]1O (stereo partly drawn) [Compound 2, 3-O-α-L-rhamnopyranosyl-(1 → 2)-β-D-galactopyranosyl-oleanoic acid-28-O-β-D-glucopyranosyl-(1 → 6)-β-D-glucopyranosyl ester] | > 45.9 µM | > 45.9 µM | > 45.9 µM | > 45.9 µM | > 45.9 µM | > 45.9 µM | > 45.9 µM | > 45.9 µM | 33,053.20 ± 951.60 | 4516.00 ± 223.23 | 29,875.39 ± 3311.75 | 3,629.71 ± 142.80 | 6,206.45 ± 185.19 | 7441.00 ± 423.23 | –
3 | C[C@@H]1O[C@@H](O[C@H]2[C@H](O[C@H]3CC[C@@]4(C)C(CC[C@]5(C)C4CC=C4C6CC(C)(C)CC[C@]6(C(=O)O)CC[C@]45C)C3(C)C)O[C@H](CO)[C@H](O)[C@@H]2O)[C@H](O)[C@H](O)[C@H]1O (stereo partly drawn) [Compound 2a, 3-O-α-L-rhamopyranosyl-(1 → 2)-β-D-galactopyranosyl oleanoic acid] | > 65.4 µM | 20.8 ± 0.46 µM | > 65.4 µM | > 65.4 µM | > 65.4 µM | 37.3 ± 8.17 µM | > 65.4 µM | 24.3 ± 2.65 µM | 28,297.32 ± 808.92 | 4727.00 ± 221.96 | 26,304.81 ± 2370.42 | 3,962.53 ± 246.09 | – | 7408.64 ± 224.16 | –
4 | C[C@@H]1O[C@@H](O[C@H]2[C@H](O[C@H]3CC[C@@]4(C)C(CC[C@]5(C)C4CC=C4C6CC(C)(C)CC[C@]6(C(=O)O[C@@H]6O[C@H](CO[C@@H]7O[C@H](CO)[C@@H](O)[C@H](O)[C@H]7O)[C@@H](O)[C@H](O)[C@H]6O)CC[C@]45C)[C@]3(C)CO)OC[C@@H](O)[C@@H]2O)[C@H](O)[C@H](O)[C@H]1O (stereo partly drawn) [Compound 3, 3-O-α-L-rhamnopyranosyl-(1 → 2)-β-D-xylopyranosyl-hederagenin-28-O-β-D-glucopyranosyl-(1 → 6)-β-D-glucopyranosyl ester] | > 46.5 µM | > 46.5 µM | > 46.5 µM | > 46.5 µM | > 46.5 µM | > 46.5 µM | > 46.5 µM | > 46.5 µM | 29,545.10 ± 906.36 | 4564.51 ± 138.81 | 28,092.69 ± 1435.47 | 4,549.73 ± 913.74 | 6,655.82 ± 206.67* | 8303.34 ± 245.1** | –
5 | C[C@@H]1O[C@@H](O[C@H]2[C@H](O[C@H]3CC[C@@]4(C)C(CC[C@]5(C)C4CC=C4C6CC(C)(C)CC[C@]6(C(=O)O)CC[C@]45C)[C@]3(C)CO)OC[C@@H](O)[C@@H]2O)[C@H](O)[C@H](O)[C@H]1O (stereo partly drawn) [Compound 3a, 3-O-α-L-rhamopyranosyl-(1 → 2)-β-D-xylopyranosyl hederagenin] | > 66.6 µM | > 66.6 µM | > 66.6 µM | > 66.6 µM | > 66.6 µM | > 66.6 µM | > 66.6 µM | > 66.6 µM | 29,092.45 ± 852.78 | 4911.00 ± 224.16 | 29,092.75 ± 2580.19 | 4,248.00 ± 137.13 | 6,408.00 ± 195.24* | – | did not have a cytotoxic effect
6 | COc1cccc2c1C(=O)c1c(O)c3c(c(O)c1C2=O)C[C@@](O)(C(=O)CO)C[C@@H]3O[C@H]1C[C@H](N)[C@H](O)[C@H](C)O1 [Doxorubicin, doxorubicin, reference compound] | 4.23 ± 0.02 µM | 40.01 ± 0.02 µM | 23.95 ± 0.02 µM | 36.85 ± 0.02 µM | 11.09 ± 0.02 µM | 6.84 ± 0.18 µM | 33.98 ± 0.02 µM | 70 ± 0.02 µM | – | – | – | – | – | – | –
